Results from patent US8785446B2, “Treating post-seizure patients” (priority 2009, dated 2014).
Entries after “also recorded” stand apart in the source; their conditions may differ.

Experiments:
[1] = test system: GluR1 S831 and GluR1 S845; assay: AMPAR GluR1 subunit phosphorylation in hippocampus after post-seizure AMPAR antagonist treatment in vivo; set-up: species or system rat; settings: for GluR1 S845 phosphorylation: 12 hours after hypoxia-induced seizures; for GluR1 S845 phosphorylation / GluR1 S831 phosphorylation: single systemic dose within 30 minutes after seizures, vs vehicle; for GluR1 S831 phosphorylation: 12 hours after hypoxic seizures; for GluR1 subunit phosphorylation: post-treatment during the early period after seizure induction
Text: The strength of synaptic transmission in intact neuronal networks, such as in LTP, can be regulated by altered AMPAR function mediated by phosphorylation of GluR1 S831 and GluR1 S845 (Barria et al., 1997; Lee et al., 2000; Lee et al., 2003).
(§1) To determine whether seizure-induced activation of AMPAR plays a critical role in the alterations in EPSCs and subunits reported here, we examined whether pharmacologic inhibition of AMPARs in vivo following hypoxic seizures leads to a decrease in the activity of Ca^2+ dependent protein kinases and GluR1 subunit phosphorylation state. […] Within 30 minutes after hypoxic seizures, rats were treated with a single dose of systemically administered AMPAR antagonists NBQX (20 mg/kg), topiramate (30 mg/kg) or GYKI-53773 (7.5 mg/kg), and compared to vehicle-treated (0.1 ml PBS) hypoxic controls and normoxic littermates.

[2] = test system: CaMKII; assay: CaMKII activity (ELISA) after hypoxic seizures and in vivo AMPAR antagonist treatment; settings: 1 hour following hypoxic seizures; in vivo administration vs vehicle
Experimental: (§2) Protein kinase A (PKA) […] mediates the phosphorylation of GluR1 S845 and protein kinase C (PKC) is involved in the phosphorylation of both GluR1 S831 (Kameyama et al., 1998; Mammen et al., 1997) and GluR2 S880 (Seidenman et al., 2003). […] Similarly, CaMKII activity increased at 1 hour post-seizures before returning to baseline levels at 6 hours post-hypoxia. […] The rapid seizure-induced activation of these protein kinases are occurring coincident with the alterations in phosphorylation state of their known substrates, GluR1 S831, GluR1 S845, and GluR2 S880.
as §1, with “littermates. These treatment doses are the same as the treatment paradigm in which we previously observed an attenuation of long-term epileptogenic changes (Koh et al., 2004). […] Importantly, blockade of AMPAR-mediated neurotransmission is the common mechanistic feature of these three structurally unrelated compounds and may represent the potential mode of mediating alterations.” for “littermates.”

[3] = test system: PKA; assay: PKA activity (ELISA) after hypoxic seizures and in vivo AMPAR antagonist treatment; set-up: species or system rat; settings: 1 hour following hypoxic seizures; vs vehicle
Experimental: as §2
as §1, with “littermates. These treatment doses are the same as the treatment paradigm in which we previously observed an attenuation of long-term epileptogenic changes (Koh et al., 2004). […] Importantly, blockade of AMPAR-mediated neurotransmission is the common mechanistic feature of these three structurally unrelated compounds and may represent the potential mode of mediating alterations.” for “littermates.”

[4] = test system: PKC; assay: PKC activity (ELISA) after hypoxic seizures and in vivo AMPAR antagonist treatment; set-up: species or system rat; settings: 6 hours post-hypoxic seizures; vs vehicle
Experimental: as §2
as §1, with “littermates. These treatment doses are the same as the treatment paradigm in which we previously observed an attenuation of long-term epileptogenic changes (Koh et al., 2004). […] Importantly, blockade of AMPAR-mediated neurotransmission is the common mechanistic feature of these three structurally unrelated compounds and may represent the potential mode of mediating alterations.” for “littermates.”

[5] = test system: AMPAR-mediated sEPSCs in CA1 neurons; assay: AMPAR-mediated sEPSCs in ex vivo hippocampal slices after post-seizure treatment in vivo; set-up: species or system rat; settings: for sEPSC amplitude / sEPSC frequency: hippocampal slices prepared 1 hour after administration post hypoxic seizure, vs vehicle; for acute and subacute enhancement in AMPAR EPSCs: post-treatment during the early period after seizure induction
Experimental: Neonatal seizures have been described to enhance the excitability of hippocampal networks as well as cause alterations in long-term network excitability (Jensen et al., 1991; Sanchez et al., 2001; Silverstein and Jensen, 2007; Cornejo et al., 2007), but their acute effects on AMPAR function have not been examined. We compared spontaneous (s) and miniature (m) AMPAR-mediated excitatory postsynaptic currents (EPSCs) in CA1 pyramidal neurons in P10 rat pup hippocampal slices removed 1 hour after hypoxia-induced seizures (hypoxic seizures) and normoxic control rat pups.
Following hypoxic seizures, NBQX, topiramate or GYKI-53773 were administered to the rat pups experiencing hypoxic seizures and hippocampal slices were prepared 1 hour after administration of AMPAR antagonists.

[6] = cited from earlier work
[7] = test system: KA-induced seizures; assay: Susceptibility to KA-induced seizures 3 days after hypoxic seizures at P10; assay type: in vivo, rat
Experimental: We have previously reported that enhanced hippocampal excitability observed in rat pups following hypoxia-induced seizures is reflected in the increased susceptibility to KA-induced seizures in these animals at both short (72-96 h) and long (40+ days) intervals following the initial seizures at P10 (Koh et al., 2004).

[8] = test system: hypoxia-induced seizures; settings: post-seizure treatment within the first 48 hours following hypoxic seizures; cited from earlier work
[9] = test system: GluR2-lacking AMPARs; assay: Evoked EPSC recording in CA1 pyramidal neurons of hippocampal slices removed 1 hour after hypoxic seizures; assay type: cell-based, rat; settings: bath application 10 μM; slices 1 hour after in vivo seizures in P10 pup; compared to normoxic controls
Experimental: The age window around P10-12 is characterized by a relative preponderance of Ca^2+ permeable AMPARs in hippocampal and neocortical neurons resulting from a developmentally regulated decrease in GluR2 subunit expression (Sanchez et al., 2001; Durand and Zukin, 1993; Talos et al., 2006b; Kumar et al., 2002). Additionally, hypoxic seizures have been previously associated with a decrease in the expression of GluR2 mRNA and protein 48 hours following the induction of seizures (Sanchez et al., 2001). However the acute alterations in the phosphorylation and function of GluR-2 lacking AMPARs following hypoxic seizures have not been well-characterized. […] Expression of inwardly rectifying AMPAR-mediated currents can result from an increase in phosphorylation of GluR2 S880 and resultant trafficking of the GluR2 subunit out of the synaptic membrane (Chung et al., 2000; Kim et al., 2001; Seidenman et al., 2003). Indeed, GluR2 S880 phosphorylation was increased in the hippocampus of rats experiencing hypoxic seizures as compared to normoxic litter mates, maximal at 12 hours post hypoxia. This seizure-induced phosphorylation of GluR2 S880 may contribute to the subacute changes in GluR2 expression reported previously (Sanchez et al., 2001), as well as increased inward rectification of EPSPs reported above.

[10] = test system: neonatal seizures; settings: cited from earlier work

**Q.** Which “GluR1 S845 phosphorylation” value [1] does the source give for `CC(=O)N1N=C(c2ccc(N)cc2)c2cc3c(cc2C[C@H]1C)OCO3` [GYKI-53773] here?
**A.** significantly reduced to baseline normoxia levels

**Q.** And the “GluR1 S831 phosphorylation” value [1]?
**A.** significantly reduced to baseline normoxia levels

**Q.** What about the GluR1 subunit phosphorylation [1] of the same compound?
**A.** blocked

**Q.** And the “activity of CaMKII” value [2]?
**A.** reduced to near baseline levels; also recorded: blocked

**Q.** And the “seizure-induced PKA activation” value [3]?
**A.** blocked

**Q.** And the “seizure-induced increase in PKC activity” value [4]?
**A.** significantly reduced; also recorded: blocked

**Q.** And the sEPSC amplitude [5]?
**A.** significantly attenuated

**Q.** And the sEPSC frequency [5]?
**A.** attenuation

**Q.** What about the “acute and subacute enhancement in AMPAR EPSCs” value [5] of the same compound?
**A.** blocked

**Q.** What about the cognitive impairment ([6]; preliminary human studies) of the same compound?
**A.** less cognitive impairment

**Q.** For `NS(=O)(=O)c1cccc2c1c([N+](=O)[O-])cc1nc(O)c(O)nc12` [NBQX], which “GluR1 S845 phosphorylation” value [1] is on record?
**A.** significantly reduced to baseline normoxia levels

**Q.** And the “GluR1 S831 phosphorylation” value [1]?
**A.** significantly reduced to baseline normoxia levels

**Q.** And the GluR1 subunit phosphorylation [1]?
**A.** blocked

**Q.** And the “activity of CaMKII” value [2]?
**A.** reduced to near baseline levels; also recorded: blocked

**Q.** What about the “seizure-induced PKA activation” value [3] of the same compound?
**A.** reduced significantly; also recorded: blocked

**Q.** What about the “seizure-induced increase in PKC activity” value [4] of the same compound?
**A.** significantly reduced; also recorded: blocked

**Q.** What about the sEPSC amplitude [5] of the same compound?
**A.** significantly attenuated

**Q.** What about the sEPSC frequency [5] of the same compound?
**A.** attenuation

**Q.** And the “acute and subacute enhancement in AMPAR EPSCs” value [5]?
**A.** blocked

**Q.** And the latency to seizures ([7]; P13, 20 mg/kg i.p., compared to vehicle treated hypoxic controls)?
**A.** significantly longer

**Q.** What about the maximal seizure severity ([7]; P13, 20 mg/kg i.p., compared to vehicle-treated pups with prior hypoxic seizures) of the same compound?
**A.** significantly lower

**Q.** What about the enhanced seizure susceptibility ([7]; at P13 (72 hours post-hypoxic seizures), 20 mg/kg i.p. following hypoxic seizures, KA 2 mg/kg i.p.) of the same compound?
**A.** significantly attenuated; also recorded: reversal

**Q.** And the “long-term increase in susceptibility to seizures” value [8]?
**A.** prevents

**Q.** What about the seizure-induced neuronal injury [8] of the same compound?
**A.** prevents

**Q.** Which “eEPSCs in CA1 pyramidal neurons post-hypoxia” value [9] does the source give for `CCCC(=O)N[C@@H](Cc1ccc(O)cc1)C(=O)NCCCCNCCCNCCCN` [PhTX-433] here?
**A.** blocked the majority of eEPSCs

**Q.** Which “infants with neonatal seizures in whom efficacy for acute seizure suppression is lacking” value ([10]; first line therapy) does the source give for `O=C1NC(=O)C(c2ccccc2)(c2ccccc2)N1` [phenyloin] here?
**A.** ~50%

**Q.** What about the “effect on long-term outcome” value ([10]; infants with neonatal seizures) of the same compound?
**A.** no effect

**Q.** What does the source list for `CC1(C)O[C@@H]2[C@@H](CO[C@@]3(COS(N)(=O)=O)OC(C)(C)O[C@@H]23)O1` [topiramate]?
**A.** GluR1 S845 phosphorylation [1]: significantly reduced to baseline normoxia levels; GluR1 S831 phosphorylation [1]: significantly reduced to baseline normoxia levels; GluR1 subunit phosphorylation [1]: blocked; activity of CaMKII [2]: reduced to near baseline levels; also recorded: blocked; seizure-induced PKA activation [3]: reduced significantly; also recorded: blocked; seizure-induced increase in PKC activity [4]: blocked; sEPSC amplitude [5]: significantly attenuated; sEPSC frequency [5]: attenuation; acute and subacute enhancement in AMPAR EPSCs [5]: blocked; long-term increase in susceptibility to seizures [8]: prevents; seizure-induced neuronal injury [8]: prevents; threshold for memory impairment ([6]; healthy volunteers and patients with epilepsy): lower than lamotrigine and valproate
